Where a name gives a salt, the structure may show the parent alone.
Columns and labels:
[1] = system: antibody secreting cells in the spleen; assay: Kennedy Plaque Assay (humoral immune system depressed by 6-mercaptopurine; number of plaques); type: in vivo; settings: for change in vivo at 6.25 mg/kg: ip, 60 mg/Kg of 6 MP plus 6.25 mg/Kg (i.p.) of compound, read-out: Percent Restoration (+) or Suppression (-); for percent change from control (i.e., without 6MP): without 6MP treatment, 6.25 mg/Kg (i.p.) of compound
Procedure: In this assay, in which the in vitro model used was the Kennedy modification of the Jerne (or plaque) technique (J. C. Kennedy et al, Immunol., 20, p. 253 (1971)), the animal's humoral immune system is depressed artificially by the known immunosuppressant drug, 6-mercaptopurine (6-MP), and then the ability of a drug to either suppress it further or restore it towards normal is evaluated. The change in the number of plaques, which is a direct correlate of the change in the number of antibody secreting cells in the spleen, is used to measure this effect. For example, the compound of Example 11 results in greater than 100% restoration of the number of plaques and thus causes an immunoenhancement of the humoral system. In contrast, the compound of Example 28 results in about 24% further suppression of the number of plaques and thus behaves as an immunosuppressant.
of 6 MP plus 6.25 mg/Kg (i.p.)
^1 without 6MP treatment
^2 percent change from control (i.e., without 6MP)

murine marcophage cells = assay: Chemotaxis assay (migration of macrophages toward complement-derived chemoattractant); type: cell-based
Procedure: In this assay, done according to the methods of R. Synderman et al., Infection & Immunity, 11, p. 488-492 (1975) and M. S. Meltzer et al., J. Natl. Cancer Inst., 54, p. 795-799 (1975), the ability of a drug substance to influence the movement of cells responding to a stimulus induced by some foreign substance or injury is determined. This is vitro assay utilizes a chemoattractant, derived from a component of the immunological system known as complement, to induce murine marcophage cells to migrate toward it. The effect of a drug substance on such movements can be measured by counting the cells. […] For example, the compound of Example 15 stimulates migration by 35.6% at 10^-8 molar concentration and is thus immunoenhancing.

mouse hepatitis virus = assay: Antiviral assay - hepatitis in mice; type: in vivo; settings: once daily for 3 days; for Mean Liver Score: day 4, 0 (normal) to 4 (extreme discoloration); for Percent Survival: day 21
Procedure: Female mice weighing approximately 21-24 grams were inoculated with 0.1 ml of a mouse liver suspension containing mouse hepatitis virus, which liver suspension is at a dilution of 10^-5.5. Starting twenty-four hours post-virus inoculation, the animals were intraperitoneally ("i.p.") or orally administered the test compound(s) once daily for 3 days. On day 4, one third to one half of each group of mice were sacrificed and their liver removed for examination. Each liver was scored and assigned a number from 0 (normal liver) to 4 (extreme discoloration). The mean liver score per group was computed. The number of animals surviving until termination of the study (day 21) was also recorded. Anti-hepatitis activity is evidenced by increased survivor numbers and improved liver scores.

[2] = system: carrageenan-induced paw edemas; assay: Anti-inflammatory assay, carrageenan-induced paw edema; type: in vivo, Male, Sprague-Dawley rats; settings: 50 mg/Kg p.o.; dosed two hours before carrageenan
Procedure: The anti-inflammatory properties of various compounds of this invention were determined by carrageenan-induced paw edemas of test rats. Male, Sprague-Dawley rats (Blue Spruce Farm) were ordered at 125-140 g, housed for one week, and allowed food and water ad libitum. At the time of the experiments, only rats weighing 160-200 g were used.
All compounds were dissolved or suspended in a 0.5% water solution of Methocel and orally administered to groups of six rats each. Control rats received Methocel only. Two hours later (unless otherwise stated), paw edema was induced by subcutaneous injection into the plantar surface of the right hind paw of 0.1 ml of a 1.0% homogenized suspension of carrageenan.
Immediately, the volume of the paw was measured by immersing it in mercury to above the lateral mateolus. The mercury in a glass cylinder 25 mm in diameter and 60 mm deep was connected at the bottom on the cylinder by a column of water to a Statham transducer (model P23BB), range 0-5 cm of mercury pressure. The volume was recorded electronically on a Beckman recorder, R511. Three hours later, the inflamed paw volume was measured again, and the change in volume was recorded for each group. The percent inhibition of edema was calculated using the control group paw volume as 100% edema, i.e., as (the change in edema in the control group less the change in edema in the test group) times 100 divided by the change in edema in the control group.

[3] = 12.5 mg/Kg i.p., control 2.6 (Examples 11, 16, 23), 3.4 (25, 26)
[4] = 12.5 mg/Kg i.p., control 5% (Examples 11, 16, 23), 6% (25, 26)
[5] = 25 mg/Kg i.p., control 2.6 (Examples 11, 23), 3.4 (25, 26)
[6] = 25 mg/Kg i.p., control 5% (Examples 11, 23), 6% (25, 26)

In the case of `CSC1CCN2CC(c3ccccc3)N=C12` (stereo not drawn) [Example 1, 2,5,6,7-Tetrahydro-2-phenyl-7-methylthio-3H-pyrrolo[1,2-a]imidazole hydrochloride], the change in vivo at 6.25 mg/kg [1] is reported as 72%, the “Percent Inhibition (-) or Enhancement (+) of migration” value (from here on “Percent Inhibition (-) or Enhancement”) (murine marcophage cells; 10^-5 m) is reported as -25.4% and the “Percent Inhibition (-) or Enhancement” value (murine marcophage cells; 10^-7 m) is reported as -8.8%. For the same molecule, the “Percent Inhibition (-) or Enhancement” value (murine marcophage cells; 10^-8 m) was -17.5%, the “Percent Inhibition (-) or Enhancement” value (murine marcophage cells; 10^-9 m) was -29.7% and the “Percent Inhibition (-) or Enhancement” value (murine marcophage cells; 10^-10 m) was -68.2%. For the same molecule, the “Percent Inhibition (-) or Enhancement” value (murine marcophage cells; 10^-11 m) was -36.8% and the inhibition at 0.0001 µM (murine marcophage cells; Mus musculus, Macrophage, 10^-10 molar concentration, read-out: inhibits migration) was 68.2%.
`c1ccc(SC2CCN3CC(c4ccccc4)N=C23)cc1` (stereo not drawn) [Example 2, 2,5,6,7-Tetrahydro-2-phenyl-7-phenyl-thio-3H-pyrrolo[1,2-a]imidazole hydrochloride] was tested, and the change in vivo at 6.25 mg/kg [1] was 29%.
For `COc1ccc(CSC2CCN3CC(c4ccccc4)N=C23)cc1` (stereo not drawn) [Example 3, 2,5,6,7-Tetrahydro-2-phenyl-7-p-methoxybenzylthio-3H-pyrrolo[1,2-a]imidazole hydrochloride], the change in vivo at 6.25 mg/kg [1] was 108%, the “Percent Inhibition (-) or Enhancement” value (murine marcophage cells; 10^-5 m) was -94.9% and the “Percent Inhibition (-) or Enhancement” value (murine marcophage cells; 10^-7 m) was -64.5%. For the same molecule, the “Percent Inhibition (-) or Enhancement” value (murine marcophage cells; 10^-8 m) was -43.0% and the “Percent Inhibition (-) or Enhancement” value (murine marcophage cells; 10^-9 m) was -29.2%.
Molecule `CCCCSC1CCN2CC(c3ccccc3)N=C12` (stereo not drawn) [Example 7, 2,5,6,7-Tetrahydro-2-phenyl-7-n-butylthio-3H-pyrrolo[1,2-a]imidazole hydrochloride] has a change in vivo at 6.25 mg/kg [1] of -49%.
In the case of `COc1ccc(C2CN3CCC(Sc4ccccc4)C3=N2)cc1` (stereo not drawn) [Example 8, 2,5,6,7-Tetrahydro-2-p-methoxyphenyl-7-phenylthio-3H-pyrrolo[1,2-a]imidazole hydrochloride], the “percent change from control (i.e., without 6MP)” value [1] is reported as -36%.
In the case of `CSC1CCCN2CC(c3ccccc3)N=C12` (stereo not drawn) [Example 10, 2,3,5,6,7,8-Hexahydro-2-phenyl-8-methylthioimidazo[1,2-a]pyridine hydrochloride], the change in vivo at 6.25 mg/kg [1] is reported as 55%, the “Percent Inhibition (-) or Enhancement” value (murine marcophage cells; 10^-5 m) is reported as -94.1% and the “Percent Inhibition (-) or Enhancement” value (murine marcophage cells; 10^-7 m) is reported as -94.4%. The “Percent Inhibition (-) or Enhancement” value (murine marcophage cells; 10^-8 m) was -88.4%, the “Percent Inhibition (-) or Enhancement” value (murine marcophage cells; 10^-9 m) was -91.7% and the “Percent Inhibition (-) or Enhancement” value (murine marcophage cells; 10^-10 m) was -97.4%. For the same molecule, the “Percent Inhibition (-) or Enhancement” value (murine marcophage cells; 10^-11 m) was -97.3%.
For `c1ccc(SC2CCCN3CC(c4ccccc4)N=C23)cc1` (stereo not drawn) [Example 11, 2,3,5,6,7,8-Hexahydro-2-phenyl-8-phenylthioimidazo[1,2-a]pyridine sulfate (1:1) salt], the change in vivo at 6.25 mg/kg [1] was 125%, the “restoration of the number of plaques” value ([1]; with 6-MP) was “greater than 100%” and the “Mean Liver Score” value (mouse hepatitis virus; 6.25 mg/Kg i.p., control 2.6) was 2.0. The “Percent Survival” value (mouse hepatitis virus; 6.25 mg/Kg i.p., control 5%) was 10%, the “Mean Liver Score” value (mouse hepatitis virus; [3]) was 1.8 and the “Percent Survival” value (mouse hepatitis virus; [4]) was 40%. The “Mean Liver Score” value (mouse hepatitis virus; [5]) was 1.8 and the “Percent Survival” value (mouse hepatitis virus; [6]) was 40%.
`Cc1ccc(SC2CCCN3CC(c4ccccc4)N=C23)cc1` (stereo not drawn) [Example 12, 2,3,5,6,7,8-Hexahydro-2-phenyl-8-p-tolylthioimidazo[1,2-a]pyridine sulfate (1:1) salt] was tested, and the change in vivo at 6.25 mg/kg [1] was 50%.
Work on `Clc1ccc(SC2CCCN3CC(c4ccccc4)N=C23)cc1` (stereo not drawn) [Example 13, 2,3,5,6,7,8-Hexahydro-2-phenyl-8-p-chlorophenylthioimidazo[1,2-a]pyridine sulfate (1:1) salt] yielded a change in vivo at 6.25 mg/kg [1] of 103%.
For `c1ccc(CSC2CCCN3CC(c4ccccc4)N=C23)cc1` (stereo not drawn) [Example 14, 2,3,5,6,7,8-Hexahydro-2-phenyl-8-benzylthioimidazo[1,2-a]pyridine fumarate (1:1) salt], the “Percent Inhibition (-) or Enhancement” value (murine marcophage cells; 10^-5 m) was -29.1%, the “Percent Inhibition (-) or Enhancement” value (murine marcophage cells; 10^-7 m) was -51.0% and the “Percent Inhibition (-) or Enhancement” value (murine marcophage cells; 10^-8 m) was -51.0%. For the same molecule, the “Percent Inhibition (-) or Enhancement” value (murine marcophage cells; 10^-9 m) was -50.7%, the “Percent Inhibition (-) or Enhancement” value (murine marcophage cells; 10^-10 m) was -10.2% and the “Percent Inhibition (-) or Enhancement” value (murine marcophage cells; 10^-11 m) was -44.5%.
With `COc1ccc(CSC2CCCN3CC(c4ccccc4)N=C23)cc1` (stereo not drawn) [Example 15, 2,3,5,6,7,8-Hexahydro-2-phenyl-8-p-methoxybenzylthioimidazo[1,2-a]pyridinefumarate (1:1) salt] the change in vivo at 6.25 mg/kg [1] was 54%, the “Percent Inhibition (-) or Enhancement” value (murine marcophage cells; 10^-5 m) was “+2.6%” and the “Percent Inhibition (-) or Enhancement” value (murine marcophage cells; 10^-7 m) was “+30.1%”. The “Percent Inhibition (-) or Enhancement” value (murine marcophage cells; 10^-8 m) was “+35.6%”, the “Percent Inhibition (-) or Enhancement” value (murine marcophage cells; 10^-9 m) was “+31.8%” and the “Percent Inhibition (-) or Enhancement” value (murine marcophage cells; 10^-10 m) was “+33.8%”. For the same molecule, the “Percent Inhibition (-) or Enhancement” value (murine marcophage cells; 10^-11 m) was -1.2% and the activation at 0.01 µM (murine marcophage cells; Mus musculus, Macrophage, 10^-8 molar concentration, read-out: stimulates migration) was 35.6%.
For `CSC1(SC)CCCN2CC(c3ccccc3)N=C21` (stereo not drawn) [Example 16, 2,3,5,6,7,8-Hexahydro-2-phenyl-8,8-di(methylthio)imidazo[1,2-a]pyridine hydrochloride], the change in vivo at 6.25 mg/kg [1] was -25%, the “Mean Liver Score” value (mouse hepatitis virus; 6.25 mg/Kg i.p., control 2.6) was 1.5 and the “Percent Survival” value (mouse hepatitis virus; 6.25 mg/Kg i.p., control 5%) was 60%. The “Mean Liver Score” value (mouse hepatitis virus; [3]) was 2.0 and the “Percent Survival” value (mouse hepatitis virus; [4]) was 90%.
`c1ccc(SC2(Sc3ccccc3)CCCN3CC(c4ccccc4)N=C32)cc1` (stereo not drawn) [Example 17, 2,3,5,6,7,8-Hexahydro-2-phenyl-8,8-di(phenylthio)imidazo[1,2-a]pyridine fumarate] was tested, and the “percent change from control (i.e., without 6MP)” value [1] was -37% and the “Percent Inhibition of carrageenan induced edema” value [2] was 38.6%.
`CC(C)SC1CCCN2CC(c3ccccc3)N=C12` (stereo not drawn) [Example 18, 2,3,5,6,7,8-Hexahydro-2-phenyl-8-i-propylthioimidazo[1,2-a]pyridine sulfate] was tested, and the change in vivo at 6.25 mg/kg [1] was 97% and the “Percent Inhibition of carrageenan induced edema” value [2] was 40.4%.
With `COC1(OC)CCN2CC(c3ccccc3)N=C21` (stereo not drawn) [Example 25, 2,5,6,7-Tetrahydro-2-phenyl-7,7-dimethoxy-3H-pyrrolo[1,2-a]imidazole sulfate] the “Mean Liver Score” value (mouse hepatitis virus; [3]) was 2.6, the “Percent Survival” value (mouse hepatitis virus; [4]) was 0% and the “Mean Liver Score” value (mouse hepatitis virus; [5]) was 1.1. For the same molecule, the “Percent Survival” value (mouse hepatitis virus; [6]) was 0%, the “Mean Liver Score” value (mouse hepatitis virus; 50 mg/Kg i.p., control 3.4) was 1.2 and the “Percent Survival” value (mouse hepatitis virus; 50 mg/Kg i.p., control 6%) was 0%.
For `COC1(OC)CCCN2C1=NCC2c1ccccc1` (stereo not drawn) [Example 26, 2,3,5,6,7,8-Hexahydro-3-phenyl-8,8-dimethoxy imidazo[1,2-a]pyridine hydrochloride], the “Mean Liver Score” value (mouse hepatitis virus; [3]) was 2.7, the “Percent Survival” value (mouse hepatitis virus; [4]) was 0% and the “Mean Liver Score” value (mouse hepatitis virus; [5]) was 2.3. The “Percent Survival” value (mouse hepatitis virus; [6]) was 0%.
With `[O-][S+](c1ccccc1)C1CCCN2CC(c3ccccc3)N=C12` (stereo not drawn) [Example 28, 2,3,5,6,7,8-Hexahydro-2-phenyl-8-phenylsulfinylimidazo[1,2-a]pyridine sulfate] the change in vivo at 6.25 mg/kg [1] was -24% and the “further suppression of the number of plaques” value ([1]; with 6-MP) was “about 24%”.
For `c1ccc(SC2(Sc3ccccc3)CCCn3cc(-c4ccccc4)nc32)cc1` [Example 33, 5,6,7,8-Tetrahydro-2-phenyl-8,8-diphenylthio imidazo[1,2-a]pyridine], the change in vivo at 6.25 mg/kg [1] was 25%.
